Where “and” joins values, the source holds several entries; their conditions need not be identical. Identical values can stand only once. Entries after “also recorded” stand apart in the source; their conditions may differ.
Assays:
[1] = test system: patients with resistant hypertension; assay: Randomized, double-blind, placebo-controlled dose-titration study: sitting blood pressure by standard sphygmomanometry; assay type: in vivo, human; conditions: for patients achieving SBP goal, % / patients achieving SBP goal, responders n: n = 76; for placebo-corrected change from baseline in trough sitting SBP: post-hoc
Protocol: In this randomized, double-blind, placebo-controlled, dose-titration study, 115 patients with resistant hypertension as defined by JNC 7 guidelines were randomized 2:1 to receive escalating doses of darusentan (10, 50, 100, 150 and 300 mg) or placebo once daily for 10 weeks. Darusentan dose was increased every 2 weeks.
Patients (35 to 85 years of age) with resistant hypertension as defined by the JNC 7 guidelines and who were treated with and adhered to full doses of JNC 7 recommended antihypertensives, including a diuretic and two or more antihypertensive medications from different drug classes, defined as (a) ACE inhibitors and angiotensin II receptor blockers, (b) beta-adrenergic receptor blockers, and (c) calcium channel blockers, were eligible to participate in the study. Patients also were required to have an estimated glomerular filtration rate (GFR)≧30 mL/min/1.73 m^2 during the screening period. Women of childbearing potential were required to have a negative serum pregnancy test at the screening visit and a negative urine pregnancy test at baseline, and they must have agreed to use a reliable double-barrier method of contraception throughout the study and for at least 4 weeks after the last study visit. Patients with an average sitting SBP≧180 mmHg, DBP≧110 mmHg, hemoglobin A1c>10%, hemoglobin concentration<10 g/dL, hematocrit<30%, serum thyroid stimulating hormone concentration>1.5× the upper limit of normal (ULN), or serum alanine aminotransferase (ALT) or aspartate aminotransferase (AST)>2×ULN during the screening period were excluded from the study. […] All patients provided written informed consent.
In this randomized, double-blind, placebo-controlled, dose-titration study, patients were randomized 2:1 to receive escalating doses of darusentan or placebo once daily in the morning for 10 weeks after completing a 2-week placebo run-in period (FIG. 1). Darusentan was initiated at a dose of 10 mg/day and escalated every 2 weeks at doses of 50, 100 and 150 mg/day until reaching a maximum of 300 mg/day. […] Patients were withdrawn from the study if a subsequent dose reduction was required. After completion of the 10-week treatment period, patients were withdrawn from study medication over a maximum of 2 weeks. This study was approved by an Institutional Review Board/Independent Ethics Committee and conducted in accordance with the principles of Good Clinical Practices and the revised Declaration of Helsinki.
(§1) Co-primary efficacy endpoints were the changes from baseline through weeks 8 and 10 (i.e., doses of 150 and 300 mg) in trough sitting SBP. Blood pressure was measured at every study visit (baseline and weeks 2, 4, 6, 8 and 10) using standard sphygmomanometry. Secondary variables included 24-hour SBP as measured by ambulatory blood pressure monitoring (ABPM), percentage of patients who achieved SBP goal, trough sitting DBP, and urinary albumin to creatinine ratio. Ambulatory blood pressure monitoring was recorded once before randomization and repeated during the 24 hours immediately preceding the week 10 study visit. Urine samples for determination of albumin to creatinine ratio were collected at screening, baseline and week 10.
A nonlinear mixed effect model was used for the analysis of change in blood pressure, with comorbidity status as a covariate. This model used all observed blood pressure measurements with no imputation for missing values. Linear contrast statements were used to test the slope through a given time point to test the effect of the dose administered on that week. Estimates of treatment effect were obtained via least square means. Response rates were compared with logistic regression models at each blood pressure measurement with comorbidity status as a covariate; missing values were imputed with last observation carried forward for these models. Safety summaries include all patients who received ≧1 dose of blinded study medication. […]

[2] = test system: patients with resistant hypertension; assay: Same clinical study: 24-hour ambulatory blood pressure monitoring (ABPM); assay type: in vivo, human
Protocol: as §1
(§2) A nonlinear mixed effect model was used for the analysis of change in blood pressure, with comorbidity status as a covariate. This model used all observed blood pressure measurements with no imputation for missing values. Linear contrast statements were used to test the slope through a given time point to test the effect of the dose administered on that week. Estimates of treatment effect were obtained via least square means. Response rates were compared with logistic regression models at each blood pressure measurement with comorbidity status as a covariate; missing values were imputed with last observation carried forward for these models. Safety summaries include all patients who received ≧1 dose of blinded study medication.
In this randomized, double-blind, multi-center study, subjects underwent a 2-week placebo run-in, followed by 2:1 randomization to darusentan or placebo once daily for 10 weeks. Subjects were initiated on 10 mg of study drug and underwent dose-escalation every 2 weeks through doses of 50, 100 and 150 mg until a maximum dose of 300 mg was achieved. Change from baseline to week 10 in 24-hour ambulatory blood pressure (ABP) was a secondary efficacy endpoint. All available ABP data were included in the analyses (observed population).

[3] = test system: patients with resistant hypertension; assay: Same clinical study: safety and tolerability assessments; assay type: in vivo, human
Protocol: Physical examinations, vital sign measurements, clinical chemistry and hematologic laboratory tests, and electrocardiography were performed at the screening visit and periodically throughout the study. Blood samples were obtained at baseline and at weeks 4 and 10 during study drug treatment to monitor liver function. Additional blood samples were drawn from male patients at baseline and week 10 to assess follicle stimulating hormone, inhibin B, luteinizing hormone and testosterone levels. Male fertility was assessed by analysis of semen samples obtained within 2 weeks before baseline and within 2 weeks before week 10. Adverse events were monitored throughout the study.
as §2

[4] = test system: patients with resistant hypertension; assay: Same clinical study: urinary albumin to creatinine ratio; assay type: in vivo, human
Protocol: as §1

[5] = test system: patients with moderate hypertension; conditions: 10 to 100 mg/day, no other antihypertensive drugs; cited from earlier work

## COc1cc(OC)nc(O[C@H](C(=O)O)C(OC)(c2ccccc2)c2ccccc2)n1 [Darusentan, (+)-(S)-2-[(4,6-dimethoxy-2-pyrimidinyl)oxy]-3-methoxy-3,3-diphenylpropionic acid]
[1]; 2-week withdrawal period after week 10, no significant difference vs placebo
  sitting and standing blood pressure during withdrawal: increased
[1]; 10 to 300 mg once daily, escalated every 2 weeks
  dose dependence of improvements in trough sitting SBP and DBP: dose dependent
[1]; by week 10
  reduction in peak sitting DBP: 8.2 mmHg
[1]; by week 10, placebo 9.9
  reduction in peak sitting SBP: 17.1 mmHg
[1]; study end (week 10), baseline 80.6
  average trough sitting DBP at end of treatment: 73.9 mmHg
[1]; study end (week 10), baseline 146.3
  average trough sitting SBP at end of treatment: 132.6 mmHg
[1]; week 2 (10 mg)
  patients achieving SBP goal, %: 30.3%
  patients achieving SBP goal, responders n: 23
[1]; week 4 (50 mg dose)
  placebo-adjusted mean trough sitting DBP, change from baseline: −4.9 mmHg
[1]; week 4 (50 mg)
  patients achieving SBP goal, %: 47.4%
  patients achieving SBP goal, responders n: 36
[1]; week 6 (100 mg)
  patients achieving SBP goal, %: 44.7%
  patients achieving SBP goal, responders n: 34
[1]; week 8 (150 mg dose), vs placebo
  change from baseline in mean trough sitting SBP, difference between groups: not statistically significant
[1]; week 8 (150 mg)
  patients achieving SBP goal, %: 42.1%
  patients achieving SBP goal, responders n: 32
[1]; week 10 (300 mg dose), add-on therapy
  placebo-adjusted mean trough sitting DBP, change from baseline: −5.8 mmHg and −5.8±2.3 mmHg
[1]; week 10 (300 mg dose), oral once daily, add-on to >=3 full-dose antihypertensives incl. diuretic
  placebo-adjusted mean trough sitting SBP, change from baseline: −11.6 mmHg and −11.6±3.3 mmHg
[1]; week 10 (300 mg), JNC 7 goal
  patients achieving SBP goal, %: 49% and 48.7%
[1]; week 10 (300 mg)
  patients achieving SBP goal, responders n: 37
[1]; week 10 (300 mg), subjects on >=4 antihypertensive drugs
  placebo-corrected change from baseline in trough sitting SBP: −12.71 mmHg
[1]; week 10 (300 mg), subjects on exactly 3 antihypertensive drugs
  placebo-corrected change from baseline in trough sitting SBP: −9.39 mmHg
[1]; week 10, post-hoc, placebo 26%
  subjects with decrease in SBP of at least 20 mmHg: about 46%
[1]; week 10, post-hoc, placebo 46%
  subjects with change from baseline of at least 10 mmHg for SBP: approximately 64%
[1]; week 10, post-hoc, placebo 49%
  subjects achieving SBP goal or a decrease in SBP of at least 10 mmHg: 71%
[1]; week 10, subjects on >=4 antihypertensive drugs, placebo 38%
  subjects achieving SBP goal or a decrease in SBP of at least 10 mmHg: 66%
[1]; week 10, subjects on exactly 3 antihypertensive drugs, placebo 57%
  subjects achieving SBP goal or a decrease in SBP of at least 10 mmHg: 76%
[2]; 300 mg, week 10
  placebo-adjusted reduction in mean 24-hour diastolic ABP: 7.2±1.6 mmHg
[2]; ABPM at week 10
  placebo-adjusted 24-hour ambulatory DBP, change from baseline: −7.2 mmHg and −7.2±1.6 mmHg
  placebo-adjusted 24-hour ambulatory SBP, change from baseline: −9.2 mmHg and −9.2±2.2 mmHg
[2]; ABPM week 10, once daily dosing
  blood pressure reduction over the 24-hour monitoring period: maintained throughout the 24-hour monitoring period; also recorded: maintained over 24 hours; also recorded: remained consistently lower throughout the dosing interval
[2]; after 10 weeks, post-hoc analysis
  improvement in placebo-adjusted diurnal SBP: 8.7 mmHg
[2]; week 10
  placebo-adjusted change from baseline in mean ABPM-determined nocturnal DBP: −5.9 mm Hg
  placebo-adjusted change from baseline in mean ABPM-determined nocturnal SBP: −9.9 mm Hg
[2]; week 10, placebo 2.2±2.4
  decrease in day-time SBP: 10.9±1.4 mmHg
[2]; week 10, placebo 2.3
  improvement in peak DBP as recorded by ABPM: 9.2 mmHg
[2]; week 10, placebo 3.8±2.7
  decrease in night-time SBP: 11.9±1.6 mmHg
[2]; week 10, placebo 6.0
  improvement in peak SBP as recorded by ABPM: 14.1 mmHg
[2]; week 10, placebo 6.8%
  Day/night SBP ratio: 9.5%
[3]; 10 to 300 mg once daily for 10 weeks, add-on therapy
  overall tolerability: generally safe and well tolerated
[3]; all events mild
  decreases in hematocrit reported as adverse events: 2 patients
  decreases in hemoglobin reported as adverse events: 2 patients
[3]; both groups
  mean concentrations of ALT, AST, and γ-glutamyltransferase: decreased slightly from baseline
[3]; darusentan group, n = 76
  number of serious adverse events reported: Five
  patients reporting serious adverse events: 4 patients
  patients who discontinued the study because of an adverse event: 4 patients
[3]; human, in vivo
  cases of severe edema reported: one
  deaths during the course of the study: No patients died
  effects on heart rate or liver enzyme levels: no clinically relevant effects
  intensity of peripheral edema: largely mild to moderate
  patients able to successfully escalate study medication dose to 300 mg/day: 78%
  patients with elevations in ALT or AST >2×ULN: no patients; also recorded: no drug-related serious adverse events or elevations in serum aminotransferase concentrations>2×ULN
  relation of serious adverse events to study medication: None of these events were considered to be related to study medication; also recorded: no drug-related serious adverse events
[3]; n = 76
  Treatment-emergent adverse event: Arthralgia, patients %: 3%
  Treatment-emergent adverse event: Arthralgia, patients n: 2
  Treatment-emergent adverse event: Arthritis, patients n: 0
  Treatment-emergent adverse event: Diarrhea, patients %: 1 (1) %
  Treatment-emergent adverse event: Diarrhea, patients n: 1 (1)
  Treatment-emergent adverse event: Dizziness, patients %: 7%
  Treatment-emergent adverse event: Dizziness, patients n: 5
  Treatment-emergent adverse event: Gastroenteritis, patients %: 5%
  Treatment-emergent adverse event: Gastroenteritis, patients n: 4
  Treatment-emergent adverse event: Headache, patients %: 11%
  Treatment-emergent adverse event: Headache, patients n: 8
  Treatment-emergent adverse event: Nasopharyngitis, patients %: 7%
  Treatment-emergent adverse event: Nasopharyngitis, patients n: 5
  Treatment-emergent adverse event: Peripheral edema, patients %: 17%
  Treatment-emergent adverse event: Peripheral edema, patients n: 13
  Treatment-emergent adverse event: Sinusitis, patients %: 8%
  Treatment-emergent adverse event: Sinusitis, patients n: 6
  Treatment-emergent adverse event: Upper respiratory tract infection, patients %: 5%
  Treatment-emergent adverse event: Upper respiratory tract infection, patients n: 4
[3]; vs placebo
  liver function test results: comparable between treatment groups
[3]; week 10, placebo 2.3±1.3
  heart rate, change from baseline: 0.4±0.9 beats per minute
[4]; all observed patients, n 65, baseline 12.6
  geometric mean albumin to creatinine ratio at week 10: 9.4 mg/g
[4]; all observed patients, placebo increased 6.2%
  decrease from baseline in geometric mean urinary albumin to creatinine ratio: 25.3%
[4]; baseline ratio >30 mg/g, n 12, baseline 145.4
  geometric mean albumin to creatinine ratio at week 10: 73.6 mg/g
[4]; baseline ratio ≦30 mg/g, n 53, baseline 7.2
  geometric mean albumin to creatinine ratio at week 10: 5.9 mg/g
[4]; week 10, all observed patients, n 65
  albumin to creatinine ratio, % change from baseline, mean (SE): −25.3 (8.9) %
[4]; week 10, baseline ratio >30 mg/g, n 12
  albumin to creatinine ratio, % change from baseline, mean (SE): −49.4 (23.6) %
[4]; week 10, baseline ratio ≦30 mg/g, n 53
  albumin to creatinine ratio, % change from baseline, mean (SE): −18.4 (8.3) %
[5]
  effect on SBP and DBP by comparison with placebo: significantly reduce SBP and DBP

From patent US20070196510A1, “Method for treating resistant hypertension” (priority 2006, published 2007)
